Data from US20230157952A1, “METHOD FOR IMPROVING THE STABILITY OF A PHARMACEUTICAL COMPOSITION COMPRISING A HIGH PENETRATION DRUG, AND THE PHARMACEUTICAL COMPOSITION OBTAINED THEREFROM” (Techfields Inc., priority 2020, published 2023).

Legend:
Type in all cases: physicochemical
[1] = Effect of temperature (and pH) on the stability of the solution (purity); conditions: 7% solution in water
[2] = Stability of the pure HPDs (dry solid) at 25° C./RH 60%; conditions: pure HPD, 25° C./RH 60%
[3] = Effect of pH value on the stability of the solution (purity); conditions: 25° C.
[4] = day 28, pH 1.0, 7% in 25% ethanol
[5] = day 28, pH 2.0, 7% in 25% ethanol
[6] = day 28, pH 3.0, 7% in 25% ethanol
[7] = day 28, pH 3.7, 7% in 25% ethanol
[8] = day 28, pH 4.6, 7% in 25% ethanol
[9] = day 28, pH 5.0, 7% in 25% ethanol
[10] = day 28, pH 6.0, 7% in 25% ethanol
[11] = day 28, pH 7.0, 7% in 25% ethanol
[12] = day 28, pH 8.0, 7% in 25% ethanol
[13] = day 28, pH 4.0, 7% in 25% ethanol
[14] = day 28, pH 4.3, 7% in 25% ethanol

Purity ([2]; 24 month)	Purity(%) from day 0-28 [3, 4] [%]	Purity(%) from day 0-28 [3, 5] [%]	Purity(%) from day 0-28 [3, 6] [%]	Purity(%) from day 0-28 [3, 7] [%]	Purity(%) from day 0-28 [3, 8] [%]	Purity(%) from day 0-28 [3, 9] [%]	Purity(%) from day 0-28 [3, 10] [%]	Purity(%) from day 0-28 [3, 11] [%]	Purity(%) from day 0-28 [3, 12] [%]	Purity(%) from day 0-28 [3, 13] [%]	Purity(%) from day 0-28 [3, 14] [%]	Structure (SMILES)	Purity ([2]; 12 month)	Purity ([2]; 18 month)	Purity(%) from day 0-14 ([3]; day 14, pH 1.0, 7% in water) [%]	Purity(%) from day 0-14 ([3]; day 14, pH 2.0, 7% in water) [%]	Purity(%) from day 0-14 ([3]; day 14, pH 3.0, 7% in water) [%]	Purity(%) from day 0-14 ([3]; day 14, pH 3.7, 7% in water) [%]	Purity(%) from day 0-14 ([3]; day 14, pH 4.0, 7% in water) [%]	Purity(%) from day 0-14 ([3]; day 14, pH 4.3, 7% in water) [%]	other results
97.9 ± 0.3	69.1 ± 0.2	80.8 ± 0.4	92.5 ± 0.3	97.2 ± 0.4	97.3 ± 0.3	94.3 ± 0.2	89.9 ± 0.3	52.8 ± 0.4	35.3 ± 0.3	–	–	CCN(CC)CCOC(=O)C(C)c1ccc(CC(C)C)cc1.Cl (racemic) [C-4, 2-(diethylamino)ethyl (R,S)-2-(p-isobutylphenyl)propionate•HCl salt]	98.1 ± 0.3	98.0 ± 0.1	–	–	–	–	–	–	Stability of the solution at a temperature higher than 40° C. and a pH lower than 3 or greater than 6 [1]: not stable; Purity ([2]; 3 month, listed as C-1-1): 99.9 ± 0.2; Purity ([2]; 6 month, listed as C-1-1): 99.8 ± 0.2; Purity ([2]; 9 month, listed as C-1-1): 99.8 ± 0.3; Purity ([2]; 12 month, listed as C-1-1): 99.5 ± 0.3; Purity ([2]; 18 month, listed as C-1-1): 99.8 ± 0.3; Purity ([2]; 24 month, listed as C-1-1): 99.7 ± 0.4; Purity ([2]; Day 0, listed as C-1-1): 99.8 ± 0.1
97.7 ± 0.4	65.3 ± 0.3	77.4 ± 0.3	88.4 ± 0.2	95.7 ± 0.3	96.8 ± 0.2	93.1 ± 0.4	85.3 ± 0.2	47.1 ± 0.3	34.9 ± 0.5	96.6 ± 0.4	96.8 ± 0.3	CC(C)Cc1ccc([C@@H](C)C(=O)OCCN(C)C)cc1.Cl (racemic) [C-5, 2-(dimethylamino)ethyl (R,S)-2-(p-isobutylphenyl)propionate•HCl salt]	98.0 ± 0.4	97.9 ± 0.1	–	–	–	–	–	–	Purity ([2]; 3 month): 98.1 ± 0.2; Purity ([2]; 6 month): 98.1 ± 0.3
98.1 ± 0.2	68.4 ± 0.3	79.2 ± 0.4	91.2 ± 0.3	96.9 ± 0.2	97.1 ± 0.3	94.5 ± 0.3	89.2 ± 0.4	51.5 ± 0.3	35.1 ± 0.3	97.3 ± 0.2	97.3 ± 0.3	CCCCN(CCCC)CCOC(=O)C(C)c1ccc(CC(C)C)cc1.Cl (racemic) [C-6, 2-(dibutylamino)ethyl (R,S)-2-(p-isobutylphenyl)propionate•HCl salt]	–	–	–	–	–	–	–	–	–

Structure (SMILES)	Purity ([2]; 24 month)	Purity(%) from day 0-28 [3, 4] [%]	Purity(%) from day 0-28 [3, 5] [%]	Purity(%) from day 0-28 [3, 6] [%]	Purity(%) from day 0-28 [3, 7] [%]	Purity(%) from day 0-28 [3, 8] [%]	Purity(%) from day 0-28 [3, 9] [%]	Purity(%) from day 0-28 [3, 10] [%]	Purity(%) from day 0-28 [3, 11] [%]	Purity(%) from day 0-28 [3, 12] [%]	Purity(%) from day 0-28 [3, 13] [%]	Purity(%) from day 0-28 [3, 14] [%]	Purity ([2]; 12 month)	Purity ([2]; 18 month)	Purity(%) from day 0-14 ([3]; day 14, pH 1.0, 7% in water) [%]	Purity(%) from day 0-14 ([3]; day 14, pH 2.0, 7% in water) [%]	Purity(%) from day 0-14 ([3]; day 14, pH 3.0, 7% in water) [%]	Purity(%) from day 0-14 ([3]; day 14, pH 3.7, 7% in water) [%]	Purity(%) from day 0-14 ([3]; day 14, pH 4.0, 7% in water) [%]	Purity(%) from day 0-14 ([3]; day 14, pH 4.3, 7% in water) [%]	other results
CCN(CC)CCOC(=O)c1ccccc1OC(C)=O.O=C(O)c1ccccc1 [A-2, 2-(diethylamino)ethyl acetylsalicylate•benzoic acid salt]	97.1 ± 0.2	–	–	–	–	–	–	–	–	–	–	–	97.9 ± 0.1	97.6 ± 0.2	60.5 ± 0.3	79.7 ± 0.4	91.0 ± 0.2	94.1 ± 0.2	95.0 ± 0.3	95.0 ± 0.4	Purity(%) from day 0-14 ([3]; day 14, pH 4.6, 7% in water): 94.4 ± 0.3%; Purity(%) from day 0-14 ([3]; day 14, pH 5.0, 7% in water): 87.3 ± 0.2%; Purity(%) from day 0-14 ([3]; day 14, pH 6.0, 7% in water): 78.3 ± 0.3%; Purity(%) from day 0-14 ([3]; day 14, pH 7.0, 7% in water): 56.0 ± 0.4%; Purity(%) from day 0-14 ([3]; day 14, pH 8.0, 7% in water): 17.7 ± 0.4%
CC(O)C(=O)O.CCN(CC)CCOC(=O)c1ccccc1OC(C)=O [A-3, 2-(diethylamino)ethyl acetylsalicylate•lactic acid salt]	96.8 ± 0.2	–	–	–	–	–	–	–	–	–	–	–	97.9 ± 0.2	97.3 ± 0.1	57.9 ± 0.4	77.0 ± 0.4	88.7 ± 0.2	93.1 ± 0.3	94.1 ± 0.4	94.4 ± 0.2	Purity(%) from day 0-14 ([3]; day 14, pH 4.6, 7% in water): 94.1 ± 0.2%; Purity(%) from day 0-14 ([3]; day 14, pH 5.0, 7% in water): 85.6 ± 0.4%; Purity(%) from day 0-14 ([3]; day 14, pH 6.0, 7% in water): 78.3 ± 0.3%; Purity(%) from day 0-14 ([3]; day 14, pH 7.0, 7% in water): 55.1 ± 0.3%; Purity(%) from day 0-14 ([3]; day 14, pH 8.0, 7% in water): 15.0 ± 0.4%
